Measured values from patent publication US20210077477A1, “MICROGLIA MODULATORS FOR USE IN TREATMENT OF DEPRESSION” (priority 2018, published 2021).
Entries after “also recorded” stand apart in the source; their conditions may differ.

Assays:
[1] = test system: CUS-exposed mice; assay: Social exploration test in the CUS model; type: in vivo
Protocol: (§1) The CUS schedule comprised daily exposure to two stressors in a random order over a 5-week period. The list of CUS stressors included: cage shaking for 1 h with loud music and lights on, lights on during the entire night (12 h), lights-off for 3 h during the daylight phase, flashing (stroboscopic) light for 6 h, placement in 4° C. cold room for 1 h, mild restraint (in small ventilated cages) for 2 h, 45° cage tilt for 14 h, wet sawdust in the cage for 14 h, exposure to rat odor for 2 h, noise in the room for 3 h, and water deprivation for 12 h during the dark period.
Each subject was placed in an observation cage and allowed to habituate to the cage for 15 min, following which a male juvenile was placed in the cage. Social exploration, defined as the time of near contact between the nose of the subject and the juvenile conspecific, was then recorded for 2 min, using computerized in-house software.

[2] = test system: hippocampal gene transcripts; assay: RNA sequencing of hippocampal gene transcription; type: in vivo, mice; settings: for Log 2 (fold change) Con-Stress-Sham vs. PLX-Stress-Sham: hippocampus
Source text: RNA Sequencing, PolyA based mRNA was selected using oligodT beads, followed by fragmentation, first strand and second strand synthesis reactions. Illumina libraries were constructed while performing the end repair, A base addition, adapter ligation and PCR amplification steps with SPRI beads cleanup in between steps. Indexed samples were pooled and sequenced in an Illumina HiSeq 2500 machine in a single read mode.
Bioinformatics analysis. Adapters were trimmed using the cutadapt tool. Following adapter removal, reads that were shorter than 40 nucleotides were discarded (cutadapt option −m 40). Reads that had either a percentage of Adenine bases above 50% or a percentage of Thymine bases above 50% were discarded using a custom script. TopHat (v2.0.10) was used to align the reads to the mouse genome (mm10). Counting reads on mm10 refseq genes (downloaded from igenomes) was done with HTSeq-count (version 0.6.1p1). Differential expression analysis was performed using DESeq2 (1.6.3). Raw p values were adjusted for multiple testing (q-value, false discovery rate).

[3] = test system: CUS-exposed mice; assay: Sucrose preference test (anhedonia) in the CUS model; type: in vivo
Protocol: as §1
Following baseline adaptation to sucrose for 3-4 days, mice were presented in the beginning of the dark circadian phase with two graduated drinking tubes, one containing tap water and the other 1% sucrose solution for 4 h. Sucrose preference was calculated as the percentage of sucrose consumption out of the total drinking volume.

[4] = test system: hippocampal gene transcripts; assay: qPCR validation of hippocampal gene expression; type: in vivo; settings: hippocampus, CUS-exposed mice
Protocol: Mice were sacrificed by decapitation. Each brain was quickly removed on an ice-cold glass plate, and the hippocampus was dissected out under a binocular. Tissues were weighed, flash frozen in liquid nitrogen, and stored in −80° C. until RNA extraction. RNA was extracted using PerfectPure RNA extraction kit (5 PRIME, Darmstadt, Germany). RNA samples (2 μg) were reverse transcribed using the QuantiTect Reverse Transcription Kit from Qiagen (Hilden, Germany), including DNase treatment of contaminating genomic DNA. Expression of mRNA was determined by qPCR, using glyceraldehyde-3-phosphate dehydrogenase (Gapdh) as a normalizing gene. The following list of gene transcripts was validated: Ionized calcium-binding adapter molecule 1 (Iba1), the Purinergic receptor P2yr12, Lymphocyte-activation gene 3 (Lag-3), Cd180, tryptophan 2,3-dioxygenase (Tdo2), Phospholipase A2 Group IVE (Plag24e) Sox11, and Dopamine Receptor D1 (Drd1). Primers were designed using PrimerQuest IDT (Integrated DNA Technologies, Inc, San Diego, Calif., USA). The following primers were used, Gapdh, Forward: TCTCCCTCACAATTTCC (SEQ ID NO: 1); Reverse: GGGTGCAGCGAACTTTA (SEQ ID NO: 2). Drd1, Forward: […] (SEQ ID NO: 3); Reverse: […] (SEQ ID NO: 4). Tdo2, Forward: […] (SEQ ID NO: 5); Reverse: […] (SEQ ID NO: 6). Iba1, Forward: […] (SEQ ID NO: 7); Reverse: […] (SEQ ID NO: 8). Lag-3, Forward: […] (SEQ ID NO: 9); Reverse: […] (SEQ ID NO: 10). Cd180, Forward: […] (SEQ ID NO: 11); Reverse: […] (SEQ ID NO: 12). Sox11, Forward: […] (SEQ ID NO: 13); Reverse: […] (SEQ ID NO: 14). Plag24e, Forward: […] (SEQ ID NO: 15); Reverse: […] (SEQ ID NO: 16), and P2yr12 Forward: […] (SEQ ID NO: 17); Reverse: […] (SEQ ID NO: 18). Normal and mock reversed transcribed samples (in the absence of reverse transcriptase), as well as no template controls (total mix without cDNA) were run for each of the examined mRNAs. qPCR reactions were subjected to an initial step of 15 min at 95° C. to activate the HotStar Taq DNA polymerase, followed by 40 cycles consisting of 15 s at 94° C., 30 s at 60° C. and 30 s at 72° C. Fluorescence was measured at the end of each elongation step. Data were collected and analyzed using the StepOnePlus instrument and software (Thermo Fischer Scientific), and a threshold cycle value Ct was calculated from the exponential phase of each PCR sample. Expression levels of mRNAs were calculated and expressed in relative units of SYBR Green fluorescence.

[5] = test system: hippocampal neurogenesis; assay: Hippocampal neurogenesis (DCX-positive cells in the DG); type: in vivo, mice; settings: CUS-exposed, PLX diet, DCX-stained cells in DG
Protocol: Microglia were visualized using a primary antibody to the microglial marker ionized calcium-binding adapter molecule-1 (Iba-1) (rabbit anti Iba-1 1:250, Wako, Japan), followed by a secondary antibody (goat anti rabbit, 1:200; Invitrogen, Carlsbad, Calif., USA). The rate of neurogenesis in the hippocampus was measured by staining for doublecortin (DCX), using guinea pig anti-DCX (1:1,000, Millipore, Chemicon, Tamecula, Calif., USA) as the primary antibody, and biotin-SP-conjugated donkey anti-Guinea pig (1:200; Jackson Laboratories, West grove, PA, USA) as the secondary antibody, with final visualization using a conjugated streptavidin Ab (Jackson Laboratories, West grove, PA, USA). […]
Images were captured using a Nikon Eclipse microscope and camera. Cells were manually counted using 10× magnification in a defined area exclusively containing the dentate gyrus (DG) or CA3 region of the dorsal hippocampus for each slide, using Nikon Imaging Elements Software (NIS-Elements). Four sections of each brain were counted. […] Microglia cell processes length was measured by capturing images at 40× magnification and by manual tracing of the processes of all Iba-1+ cells in these sections, using the Image)/FIJI software. […] Contacts were recorded if spatial overlap was observed on the body or on the dendrite branches of P2YR12-positive cells. […]

[6] = test system: brain microglia; settings: given chronically (more than 2-3 weeks); Danger et al., 2015; cited from earlier work
[7] = test system: CUS-exposed mice; assay: Porsolt forced swim test in the CUS model; type: in vivo
Protocol: as §1
Mice were placed in a plastic cylinder (with a height of 30 cm and diameter of 20 cm), filled with 25° C. water. The time spent immobile, defined as the absence of all movement except for motions required to maintain head above water were recorded for 6 min, and automatically analyzed off-line using the EthoVision software (Noldus).

[8] = test system: brain microglia; assay: Microglia depletion by PLX5622 diet (IBA-1 staining); type: in vivo, mice; settings: diet containing PLX5622 for weeks, incl. hippocampus
[9] = PLX5622 diet, non-stressed mice
[10] = CUS-exposed SHAM-treated mice, q<0.32, cutoff ±1.3-fold
[11] = CUS 5 weeks, antibody 100 μg i.p. every 4 days, 6 injections, Cipralex daily i.p., 3 weeks

In the case of `COc1ncc(F)cc1CNc1ccc(Cc2c[nH]c3ncc(C)cc23)c(F)n1` [PLX5622], the “difference between effects of ECT on social exploration in PLX vs CDiet mice” value ([1]; CUS-exposed, ECT 2.5 weeks) is reported as “did not reach statistical significance”, the “social exploration, effect of microglia depletion by itself” value [1, 9] is reported as “did not reduce” and the “genes differentially regulated, PLX vs CDiet” value [2, 10] is reported as 390 genes. For the same compound, the “genes down-regulated, PLX vs CDiet” value [2, 10] was 338 genes, the “genes up-regulated, PLX vs CDiet” value [2, 10] was 52 genes and the “genes differentially regulated between SHAM vs ECT in PLX-treated groups” value ([2]; CUS-exposed mice) was “no genes were differentially regulated”. For the same compound, the “Log 2 (fold change) Con-Stress-Sham vs. PLX-Stress-Sham” value ([2]; Cd40 transcript) was 0.159, the “Log 2 (fold change) Con-Stress-Sham vs. PLX-Stress-Sham” value ([2]; Cd80 transcript) was 0.371 and the “Log 2 (fold change) Con-Stress-Sham vs. PLX-Stress-Sham” value ([2]; Cd86 transcript) was 2.092. The “Log 2 (fold change) Con-Stress-Sham vs. PLX-Stress-Sham” value ([2]; Cd180 transcript) was 1.892, the “Log 2 (fold change) Con-Stress-Sham vs. PLX-Stress-Sham” value ([2]; Cd276 transcript) was 0.019 and the “Log 2 (fold change) Con-Stress-Sham vs. PLX-Stress-Sham” value ([2]; Ctla4 transcript) was 0.100. The “Log 2 (fold change) Con-Stress-Sham vs. PLX-Stress-Sham” value ([2]; Havcr2 (TIM-3) transcript) was 2.101, the “Log 2 (fold change) Con-Stress-Sham vs. PLX-Stress-Sham” value ([2]; Lag-3 transcript) was 1.968 and the “Log 2 (fold change) Con-Stress-Sham vs. PLX-Stress-Sham” value ([2]; Lgals3 transcript) was 0.011. For the same compound, the “Log 2 (fold change) Con-Stress-Sham vs. PLX-Stress-Sham” value ([2]; PD-L1 transcript) was 0.164, the “Log 2 (fold change) Con-Stress-Sham vs. PLX-Stress-Sham” value ([2]; Pdcd1lg2 transcript) was −0.373 and the “Log 2 (fold change) Con-Stress-Sham vs. PLX-Stress-Sham” value ([2]; Pdcd1 transcript) was −0.669. The “Log 2 (fold change) Con-Stress-Sham vs. PLX-Stress-Sham” value ([2]; Tdo2 transcript) was −0.248, the “Log 2 (fold change) Con-Stress-Sham vs. PLX-Stress-Sham” value ([2]; Tigit transcript) was −0.804 and the “Log 2 (fold change) Con-Stress-Sham vs. PLX-Stress-Sham” value ([2]; Vtcn1 transcript) was −0.905. For the same compound, the “anti-depressive effect of ECT under microglial depletion” value ([3]; CUS-exposed, PLX5622 diet, 2.5-week course of ECT) was “markedly attenuated”, the “effect of ECT on sucrose preference in PLX diet mice” value ([3]; CUS-exposed, PLX diet, ECT 3 times/week for 2.5 weeks) was “only a small increase” and the “development of CUS-induced depression” value ([3]; PLX5622 diet, 5 weeks CUS, sucrose preference and social exploration) was “did not influence”. The “sucrose preference, effect of microglia depletion by itself” value [3, 9] was “did not reduce”, the “Cd180 gene expression in PLX-treated mice” value [4] was “lower expression levels” and the “Drd1 expression, effect of the microglia depletion procedure by itself” value [4] was “not affected”. For the same compound, the “Iba1 expression, effect of the PLX5622 procedure” value [4] was “significantly reduced”, the “Lag-3 transcription in PLX-treated mice” value [4] was “almost completely abolished” and the “P2ry12 expression, effect of the PLX5622 procedure” value [4] was “significantly reduced”. The “Sox11 expression, effect of the microglia depletion procedure by itself” value [4] was “not affected”, the “Tdo2 expression in PLX5622-treated mice” value [4] was “significantly increased” and the “pla2g4e expression in PLX5622-treated mice” value [4] was “significantly increased”. The “effect of ECT on hippocampal neurogenesis under microglia depletion” value [5] was “completely prevented”, the “effect of ECT on hippocampal neurogenesis under microglia depletion” value ([5]; listed as PLX) was “significantly reduced” and the microglial depletion [6] was “near-complete microglial depletion”. The “forced swim immobility of ECT-treated PLX mice vs CDiet mice” value ([7]; CUS-exposed, ECT 2.5 weeks) was “significantly greater forced swim immobility”, the “immobility in forced swim, effect of microglia depletion by itself” value [7, 9] was “did not reduce” and the “depletion of brain microglia” value [8] was “near-complete depletion”.

In the case of `CN(C)CCC[C@@]1(c2ccc(F)cc2)OCc2cc(C#N)ccc21` [escitalopram], the “social exploration (SE) after vs before chronic treatment” value [1, 11] is reported as “significantly elevated; also recorded: significant increase” and the “sucrose preference after vs before chronic treatment” value [3, 11] is reported as “had no such effect”.
